# Test results as given in US10988459B2 (priority 2015, dated 2021).
# Molecular target: human RIP1 kinase domain (2-375) (Homo sapiens (Human), UniProt Q13546)
# Assay: biochemical
# Assay type: biochemical
# Conditions: Table 1; apparent Ki (Morrison tight-binding fit); 50 nM RIP1 kinase domain, 50 uM ATP, 2 hours incubation; read-out: RIP1 Ki
# Procedure, shortened: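 Ki^app comes from Morrison tight-binding fits of fractional activity versus compound concentration. Activity was read as ADP production, via tracer displacement lowering fluorescence polarization (633 nm laser). Conditions: 2 h, 50 nM insect-cell-expressed enzyme, 50 uM ATP, 30 mM MgCl2, 1 mM DTT, 0.5% DMSO, pH 7.5 Hepes.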
# Chain of human RIP1 kinase domain (2-375) (Q13546 2-375): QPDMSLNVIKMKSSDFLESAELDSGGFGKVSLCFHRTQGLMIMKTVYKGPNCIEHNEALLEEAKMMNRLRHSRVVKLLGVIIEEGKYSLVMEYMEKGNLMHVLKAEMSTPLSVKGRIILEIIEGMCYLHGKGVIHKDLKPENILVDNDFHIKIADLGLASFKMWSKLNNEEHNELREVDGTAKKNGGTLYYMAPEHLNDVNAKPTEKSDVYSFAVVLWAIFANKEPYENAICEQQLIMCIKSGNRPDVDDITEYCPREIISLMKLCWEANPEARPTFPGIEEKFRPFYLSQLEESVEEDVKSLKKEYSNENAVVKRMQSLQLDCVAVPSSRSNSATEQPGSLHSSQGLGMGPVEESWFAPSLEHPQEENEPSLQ
row,Compound,Ki [nM]
1,"O=C(N[C@H]1COc2[nH]ncc2NC1=O)c1cn(Cc2ccc(F)c(F)c2)cn1 [Example 17, 1-[(3,4-difluorophenyl)methyl]-N-[(6S)-5-oxo-1,4,6,7-tetrahydropyrazolo[3,4-b][1,4]oxazepin-6-yl]imidazole-4-carboxamide]",> 10000
2,"CN1C(=O)[C@@H](NC(=O)c2cc3n(n2)CCCN(c2ccccc2)C3)COc2ccccc21 [Example 6, N-[(3S)-5-methyl-4-oxo-2,3-dihydro-1,5-benzoxazepin-3-yl]-5-phenyl-4,6,7,8-tetrahydro pyrazolo[1,5-a][1,4]diazepine-2-carboxamide]",375

# Same assay, conditions: Table 5; apparent Ki (Morrison tight-binding fit); 50 nM RIP1 kinase domain, 50 uM ATP, 2 hours incubation; read-out: Ki
row,Ki [nM],Compound
1,5,"CN1C(=O)[C@@H](NC(=O)c2cc3c(-c4ccccc4)cccn3n2)COc2ccccc21 [Example 713, 4-phenyl-N-[(3S)-5-methyl-4-oxo-2,3-dihydro-1,5-benzoxazepin-3-yl]pyrazolo[1,5-a]pyridine-2-carboxamide]"
2,33,"Cc1cc2n(n1)CC[C@H](NC(=O)c1cc3c(-c4ccccc4)cccc3cn1)C(=O)N2C (racemic) [Example 702, 5-phenyl-N-[rac-(6S)-2,4-dimethyl-5-oxo-7,8-dihydro-6H-pyrazolo[1,5-a][1,3]diazepin-6-yl]isoquinoline-3-carboxamide]"

# Same assay, conditions: human RIP1 kinase domain (2-375), 50 uM ATP, 2 hours incubation, Transcreener ADP assay; read-out: RIP1 Ki
row,Ki [nM],Compound
1,1300,"CCOC(=O)[C@@H]1[C@@H]2CC[C@H](NC(=O)c3ncn(Cc4ccccc4)n3)C(=O)N(C)[C@@H]21 (single isomer, unassigned) [Example 131]"
2,407,"CCn1nc(C(=O)N[C@H]2COc3ccccc3N(C)C2=O)c2c1CC[C@@H](C(F)(F)F)C2 (single isomer, unassigned) [Example 184]"
3,76.8,"CN1C(=O)C(NC(=O)c2ncn(Cc3ccccc3)n2)CCn2nc(C(F)(F)F)cc21 (stereo not drawn) [Example 85, 1-benzyl-N-(4-methyl-5-oxo-2-(trifluoromethyl)-5,6,7,8-tetrahydro-4H-pyrazolo[1,5-a][1,3]diazepin-6-yl)-1H-1,2,4-triazole-3-carboxamide]"
4,189,"CN1C(=O)[C@@H](NC(=O)c2cc(Oc3ccccc3)ccn2)CCn2nccc21 [Example 101, (S)—N-(4-methyl-5-oxo-5,6,7,8-tetrahydro-4H-pyrazolo[1,5-a][1,3]diazepin-6-yl)-4-phenoxypicolinamide]"
5,1900,"CN1C(=O)C(NC(=O)c2ccn(Cc3ccc(F)c(F)c3)n2)CCn2ccnc21 (stereo not drawn) [Example 177, 1-(3,4-difluorobenzyl)-N-(9-methyl-8-oxo-6,7,8,9-tetrahydro-5H-imidazo[1,2-a][1,3]diazepin-7-yl)-1H-pyrazole-3-carboxamide]"

# Same assay, conditions: human RIP1 kinase domain (2-375), Transcreener ADP assay, 50 uM ATP, 2 hours incubation; read-out: RIP1 Ki
row,Compound,Ki [nM]
1,"CN1C(=O)[C@@H](NC(=O)c2nnc(Cc3ccccc3)[nH]2)CCn2nc(C3CC3(F)F)cc21 (stereo partly drawn) [Example 285, 5-benzyl-N-((6S)-2-(2,2-difluorocyclopropyl)-4-methyl-5-oxo-5,6,7,8-tetrahydro-4H-pyrazolo[1,5-a][1,3]diazepin-6-yl)-4H-1,2,4-triazole-3-carboxamide]",219
2,"CC[C@]1(C)OCc2cnc(C(=O)N[C@H]3CCn4nc([C@H]5CC5(F)F)cc4N(C)C3=O)cc21 [Example 319, (S)—N—((S)-2-((R)-2,2-difluorocyclopropyl)-4-methyl-5-oxo-5,6,7,8-tetrahydro-4H-pyrazolo[1,5-a][1,3]diazepin-6-yl)-1-ethyl-1-methyl-1,3-dihydrofuro[3,4-c]pyridine-6-carboxamide]",> 10000

# Second part, the compound after the results:
row,Ki [nM],Compound
1,172,"CN1C(=O)[C@@H](NC(=O)c2ncn(CC3(C)CC3)n2)CCn2nc(C3CC3)cc21 [Example 308, (S)—N-(2-cyclopropyl-4-methyl-5-oxo-5,6,7,8-tetrahydro-4H-pyrazolo[1,5-a][1,3]diazepin-6-yl)-1-((1-methylcyclopropyl)methyl)-1H-1,2,4-triazole-3-carboxamide]"
2,820,"CN1C(=O)[C@@H](NC(=O)c2ncn(CC3CC3(F)F)n2)CCn2nc(C3CC3)cc21 (stereo in doubt) [Example 291, (S)—N-(2-cyclopropyl-4-methyl-5-oxo-5,6,7,8-tetrahydro-4H-pyrazolo[1,5-a][1,3]diazepin-6-yl)-1-((2,2-difluorocyclopropyl)methyl)-1H-1,2,4-triazole-3-carboxamide]"
3,97.7,"Cc1cc2n(n1)CCC(NC(=O)c1ncn(Cc3ccc(F)cc3)n1)C(=O)N2C (stereo not drawn) [Example 268, N-(2,4-dimethyl-5-oxo-5,6,7,8-tetrahydro-4H-pyrazolo[1,5-a][1,3]diazepin-6-yl)-1-(4-fluorobenzyl)-1H-1,2,4-triazole-3-carboxamide]"
4,210,"CN1C(=O)C(NC(=O)c2ncn(CC3CCC3)n2)CCn2nc(C3CC3)cc21 (stereo not drawn) [Example 256, 1-(cyclobutylmethyl)-N-(2-cyclopropyl-4-methyl-5-oxo-5,6,7,8-tetrahydro-4H-pyrazolo[1,5-a][1,3]diazepin-6-yl)-1H-1,2,4-triazole-3-carboxamide]"

# Same assay, conditions: tight-binding apparent inhibition constant; human RIP1 kinase domain (2-375) 50 nM, 50 uM ATP, 2 hours; read-out: Ki
row,Compound,Ki [nM]
1,"Cc1nc(C(=O)N[C@H]2CCn3nccc3N(C)C2=O)nn1Cc1ccccc1 [Example 462, (S)-1-Benzyl-5-methyl-N-(4-methyl-5-oxo-5,6,7,8-tetrahydro-4H-pyrazolo[1,5-a][1,3]diazepin-6-yl)-1H-1,2,4-triazole-3-carboxamide]",33
2,"CN1C(=O)[C@@H](NC(=O)c2cc3c(cn2)COC32CCCOC2)COc2ccccc21 (stereo partly drawn) [Example 489, N-[(3S)-5-methyl-4-oxo-2,3-dihydro-1,5-benzoxazepin-3-yl]spiro[3H-furo[3,4-c]pyridine-1,3′-tetrahydropyran]-6-carboxamide]",94
3,"Cc1cc2n(n1)CC[C@H](NC(=O)c1nc3n(n1)CCCC3c1ccccc1)C(=O)N2C (stereo partly drawn) [Example 554, 8-phenyl-N-[(6S)-2,4-dimethyl-5-oxo-7,8-dihydro-6H-pyrazolo[1,5-a][1,3]diazepin-6-yl]-5,6,7,8-tetrahydro-[1,2,4]triazolo[1,5-a]pyridine-2-carboxamide]",330
4,CN1C(=O)[C@@H](NC(=O)c2ncn(Cc3cccc(Cl)c3Cl)n2)CCn2nc(C(F)(F)F)cc21 [Example 534],7.6
5,"CC(C)[C@@H]1CCCc2nc(C(=O)N[C@H]3COc4ccccc4N(C)C3=O)nn21 (racemic) [Example 414, (S)-5-isopropyl-N—((S)-5-methyl-4-oxo-2,3,4,5-tetrahydrobenzo[b][1,4]oxazepin-3-yl)-5,6,7,8-tetrahydro-[1,2,4]triazolo[1,5-a]pyridine-2-carboxamide]",13.6
6,"CN1C(=O)[C@@H](NC(=O)c2nc3n(n2)C(c2cnn(C)c2)CCC3)CCn2nccc21 (stereo partly drawn) [Example 397, 5-(1-methyl-1H-pyrazol-4-yl)-N—((S)-4-methyl-5-oxo-5,6,7,8-tetrahydro-4H-pyrazolo[1,5-a][1,3]diazepin-6-yl)-5,6,7,8-tetrahydro-[1,2,4]triazolo[1,5-a]pyridine-2-carboxamide]",709
7,"CN1C(=O)[C@@H](NC(=O)c2ncc3c(n2)C(C)(C)S(=O)(=O)C3)COc2ccccc21 [Example 556, 7,7-dimethyl-6,6-dioxo-N-[(3S)-5-methyl-4-oxo-2,3-dihydro-1,5-benzoxazepin-3-yl]-5H-thieno[3,4-d]pyrimidine-2-carboxamide]",2700

# More lines, now with the values ahead:
row,Ki [nM],Compound
1,21.6,"CN1C(=O)[C@@H](NC(=O)c2ncn(Cc3ccccc3)n2)CCn2nc([C@H]3CC3(F)F)cc21 (stereo in doubt) [Example 679, 1-benzyl-N-[rac-(6S)-4-methyl-5-oxo-2-[rac-(1R)-2,2-difluorocyclopropyl]-7,8-dihydro-6H-pyrazolo[1,5-a] [1,3diazepin-6-yl]-1,2,4-triazole-3-carboxamide]"
2,60,"CC(C)c1cc2n(n1)CCC(NC(=O)c1ncn(Cc3ccccc3)n1)C(=O)N2C (stereo not drawn) [Example 455, 1-Benzyl-N-(2-isopropyl-4-methyl-5-oxo-5,6,7,8-tetrahydro-4H-pyrazol[1,5-a][1,3]diazepin-6-yl)-1H-1,2,4-triazole-3-carboxamide]"
3,740,Cc1ncccc1Cn1cnc(C(=O)N[C@H]2CCn3nc(C4CC4)cc3N(C)C2=O)n1 [Example 665]
4,48,"COc1ccccc1Cn1cnc(C(=O)N[C@H]2CCn3nc(C)cc3N(C)C2=O)n1 [Example 589, 1-[(2-methoxyphenyl)methyl]-N-(6S)-2,4-dimethyl-5-oxo-7,8-dihydro-6H-pyrazolo[1,5-a][1,3]diazepin-6-yl-1,2,4-triazole-3-carboxamide]"
5,110,"Cc1cc2n(n1)CC[C@H](NC(=O)c1ncc3c(n1)C1(CCCC1)OC3)C(=O)N2C [Example 552, N-[(6S)-2,4-dimethyl-5-oxo-7,8-dihydro-6H-pyrazolo[1,5-a][1,3]diazepin-6-yl]spiro[5H-furo[3,4-d]pyrimidine-7,1′-cyclopentane]-2-carboxamide]"
6,11,"Cc1cc2n(n1)CC[C@H](NC(=O)c1ncn(Cc3cccc(F)c3)n1)C(=O)N2C [Example 519, 1-[(3-fluorophenyl)methyl]-N-(6S)-2,4-dimethyl-5-oxo-7,8-dihydro-6H-pyrazolo[1,5-a][1,3]diazepin-6-yl-1,2,4-triazole-3-carboxamide]"
7,14,"CCc1cc2n(n1)CC[C@H](NC(=O)c1ncn(Cc3ccccc3F)n1)C(=O)N2C [Example 464, (S)—N-(2-ethyl-4-methyl-5-oxo-5,6,7,8-tetrahydro-4H-pyrazolo[1,5-a][1,3]diazepin-6-yl)-1-(2-fluorobenzyl)-1H-1,2,4-triazole-3-carboxamide]"
8,154,"CC(O)c1cc2n(n1)CC[C@H](NC(=O)c1ncn(Cc3ccccc3)n1)C(=O)N2C (single isomer, unassigned) [Example 368]"
